Assays:
recombinant NL4-3 virus = test: HIV cell culture assay (antiviral activity, luciferase readout); assay type: cell-based; details: Human immunodeficiency virus 1, NL43, MT2, MT-2 cells infected for 4-5 days with recombinant NL4-3 virus carrying Renilla luciferase
Outline: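 MT-2 cells infected for 4-5 days with NL4-3 reference virus carrying Renilla luciferase in place of part of nef, in presence of serial compound dilutions. Luciferase read with live-cell substrate; EC50 from median effect equation fit.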

[1] = Compound cytotoxicity, XTT-based colorimetric assay; assay type: cell-based; details: human; uninfected MT2 cells, day 4, XTT assay
Outline: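 Run under the antiviral-assay protocol but without virus. Viability was read on day 4 and CC50 values were derived from the readout.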

Compound: Cn1nc(NS(C)(=O)=O)c2c(Cl)ccc(-n3c([C@H](Cc4cc(F)cc(F)c4)NC(=O)Cn4nc(C(F)F)c5c4C(F)(F)[C@@H]4C[C@H]54)nc4ncc(-c5nccc(C(F)F)n5)cc4c3=O)c21 (atropisomer, axis not shown; (P)) [Example 2, N-((S)-1-((3P)-3-(4-chloro-1-methyl-3-(methylsulfonamido)-1H-indazol-7-yl)-6-(4-(difluoromethyl)pyrimidin-2-yl)-4-oxo-3,4-dihydropyrido[2,3-d]pyrimidin-2-yl)-2-(3,5-difluorophenyl)ethyl)-2-((3bS,4aR)-3-(difluoromethyl)-5,5-difluoro-3b,4,4a,5-tetrahydro-1H-cyclopropa[3,4]cyclopenta[1,2-c]pyrazol-1-yl)acetamide]
- EC50 (recombinant NL4-3 virus): 0.031 nM
- CC50 at 4 day [1]: > 100 nM

Compound: Cn1nc(NS(C)(=O)=O)c2c(Cl)ccc(-n3c([C@H](Cc4cc(F)cc(F)c4)NC(=O)Cn4nc(C(F)F)c5c4C(F)(F)[C@@H]4C[C@H]54)nc4ncc(-c5cccc(C(F)F)n5)cc4c3=O)c21 (atropisomer, axis not shown; (P)) [Example 3, N-((S)-1-((3P)-3-(4-chloro-1-methyl-3-(methylsulfonamido)-1H-indazol-7-yl)-6-(6-(difluoromethyl)pyridin-2-yl)-4-oxo-3,4-dihydropyrido[2,3-d]pyrimidin-2-yl)-2-(3,5-difluorophenyl)ethyl)-2-((3bS,4aR)-3-(difluoromethyl)-5,5-difluoro-3b,4,4a,5-tetrahydro-1H-cyclopropa[3,4]cyclopenta[1,2-c]pyrazol-1-yl)acetamide]
- EC50 (recombinant NL4-3 virus): 0.051 nM
- CC50 at 4 day [1]: > 100 nM

Compound: Cn1nc(C(F)(F)F)cc1-c1ccc2c(=O)n(-c3ccc(Cl)c4c(NS(C)(=O)=O)nn(C)c34)c([C@H](Cc3cc(F)cc(F)c3)NC(=O)Cn3nc(C(F)F)c4c3C(F)(F)[C@@H]3C[C@H]43)nc2n1 (atropisomer, axis not shown; (P)) [Example 83, N-((S)-1-((3P)-3-(4-chloro-1-methyl-3-(methylsulfonamido)-1H-indazol-7-yl)-7-(1-methyl-3-(trifluoromethyl)-1H-pyrazol-5-yl)-4-oxo-3,4-dihydropyrido[2,3-d]pyrimidin-2-yl)-2-(3,5-difluorophenyl)ethyl)-2-((3bS,4aR)-3-(difluoromethyl)-5,5-difluoro-3b,4,4a,5-tetrahydro-1H-cyclopropa[3,4]cyclopenta[1,2-c]pyrazol-1-yl)acetamide]
- EC50 (recombinant NL4-3 virus): 0.07 nM
- CC50 at 4 day [1]: > 100 nM

Compound: Cn1nc(NS(C)(=O)=O)c2c(Cl)ccc(-n3c([C@H](Cc4cc(F)cc(F)c4)NC(=O)Cn4nc(C(F)F)c5c4C(F)(F)[C@@H]4C[C@H]54)nc4nc(-c5ccnn5C5CC5)ccc4c3=O)c21 (atropisomer, axis not shown; (P)) [Example 77, N-((S)-1-((3P)-3-(4-chloro-1-methyl-3-(methylsulfonamido)-1H-indazol-7-yl)-7-(1-cyclopropyl-1H-pyrazol-5-yl)-4-oxo-3,4-dihydropyrido[2,3-d]pyrimidin-2-yl)-2-(3,5-difluorophenyl)ethyl)-2-((3bS,4aR)-3-(difluoromethyl)-5,5-difluoro-3b,4,4a,5-tetrahydro-1H-cyclopropa[3,4]cyclopenta[1,2-c]pyrazol-1-yl)acetamide]
- EC50 (recombinant NL4-3 virus): 0.073 nM
- CC50 at 4 day [1]: > 100 nM

Compound: Cn1nc(NS(C)(=O)=O)c2c(Cl)ccc(-n3c([C@H](Cc4cc(F)cc(F)c4)NC(=O)Cn4nc(C(F)F)c5c4C(F)(F)[C@@H]4C[C@H]54)nc4nc(-c5csc(C(F)(F)F)n5)ccc4c3=O)c21 (atropisomer, axis not shown; (P)) [Example 4, N-((S)-1-((3P)-3-(4-chloro-1-methyl-3-(methylsulfonamido)-1H-indazol-7-yl)-4-oxo-7-(2-(trifluoromethyl)thiazol-4-yl)-3,4-dihydropyrido[2,3-d]pyrimidin-2-yl)-2-(3,5-difluorophenyl)ethyl)-2-((3bS,4aR)-3-(difluoromethyl)-5,5-difluoro-3b,4,4a,5-tetrahydro-1H-cyclopropa[3,4]cyclopenta[1,2-c]pyrazol-1-yl)acetamide]
- EC50 (recombinant NL4-3 virus): 0.055 nM
- CC50 at 4 day [1]: > 100 nM

Compound: Cn1nc(NS(C)(=O)=O)c2c(Cl)ccc(-n3c([C@H](Cc4cc(F)cc(F)c4)NC(=O)Cn4nc(C(F)F)c5c4C(F)(F)[C@@H]4C[C@H]54)nc4nc(-c5cccc(C(F)(F)F)n5)ccc4c3=O)c21 (atropisomer, axis not shown; (P)) [Example 9, N-((S)-1-((3P)-3-(4-chloro-1-methyl-3-(methylsulfonamido)-1H-indazol-7-yl)-4-oxo-7-(6-(trifluoromethyl)pyridin-2-yl)-3,4-dihydropyrido[2,3-d]pyrimidin-2-yl)-2-(3,5-difluorophenyl)ethyl)-2-((3bS,4aR)-3-(difluoromethyl)-5,5-difluoro-3b,4,4a,5-tetrahydro-1H-cyclopropa[3,4]cyclopenta[1,2-c]pyrazol-1-yl)acetamide]
- EC50 (recombinant NL4-3 virus): 0.065 nM
- CC50 at 4 day [1]: > 100 nM

Compound: Cn1nc(NS(C)(=O)=O)c2c(Cl)ccc(-n3c([C@H](Cc4cc(F)cc(F)c4)NC(=O)Cn4nc(C(F)F)c5c4C(F)(F)[C@@H]4C[C@H]54)nc4nc(-c5cccc(Cl)n5)ccc4c3=O)c21 (atropisomer, axis not shown; (P)) [Example 50, N-((S)-1-((3P)-3-(4-chloro-1-methyl-3-(methylsulfonamido)-1H -indazol-7-yl)-7-(6-chloropyridin-2-yl)-4-oxo-3,4-dihydropyrido[2,3-d]pyrimidin-2-yl)-2-(3,5-difluorophenyl)ethyl)-2-((3bS,4aR)-3-(difluoromethyl)-5,5-difluoro-3b,4,4a,5-tetrahydro-1H-cyclopropa[3,4]cyclopenta[1,2-c]pyrazol-1-yl)acetamide]
- EC50 (recombinant NL4-3 virus): 0.056 nM
- CC50 at 4 day [1]: > 100 nM

Compound: Cn1nc(NS(C)(=O)=O)c2c(Cl)ccc(-n3c([C@H](Cc4cc(F)cc(F)c4)NC(=O)Cn4nc(C(F)F)c5c4C(F)(F)[C@@H]4C[C@H]54)nc4nc(-c5cnccn5)ccc4c3=O)c21 (atropisomer, axis not shown; (P)) [Example 8, N-((S)-1-((3P)-3-(4-chloro-1-methyl-3-(methylsulfonamido)-1H-indazol-7-yl)-4-oxo-7-(pyrazin-2-yl)-3,4-dihydropyrido[2,3-d]pyrimidin-2-yl)-2-(3,5-difluorophenyl)ethyl)-2-((3bS,4aR)-3-(difluoromethyl)-5,5-difluoro-3b,4,4a,5-tetrahydro-1H-cyclopropa[3,4]cyclopenta[1,2-c]pyrazol-1-yl)acetamide]
- EC50 (recombinant NL4-3 virus): 0.019 nM
- CC50 at 4 day [1]: > 100 nM

Compound: Cn1nc(NS(C)(=O)=O)c2c(Cl)ccc(-n3c([C@H](Cc4cc(F)cc(F)c4)NC(=O)Cn4nc(C(F)F)c5c4C(F)(F)[C@@H]4C[C@H]54)nc4nc(-c5ncccn5)ccc4c3=O)c21 (atropisomer, axis not shown; (P)) [Example 47, N-((S)-1-((3P)-3-(4-chloro-1-methyl-3-(methylsulfonamido)-1H-indazol-7-yl)-4-oxo-7-(pyrimidin-2-yl)-3,4-dihydropyrido[2,3-d]pyrimidin-2-yl)-2-(3,5-difluorophenyl)ethyl)-2-((3bS,4aR)-3-(difluoromethyl)-5,5-difluoro-3b,4,4a,5-tetrahydro-1H-cyclopropa[3,4]cyclopenta[1,2-c]pyrazol-1-yl)acetamide]
- EC50 (recombinant NL4-3 virus): 0.067 nM
- CC50 at 4 day [1]: > 100 nM

Compound: COc1cncc(-c2ccc3c(=O)n(-c4ccc(Cl)c5c(NS(C)(=O)=O)nn(C)c45)c([C@H](Cc4cc(F)cc(F)c4)NC(=O)Cn4nc(C(F)F)c5c4C(F)(F)[C@@H]4C[C@H]54)nc3n2)c1 (atropisomer, axis not shown; (P)) [Example 51, N-((S)-1-((3P)-3-(4-chloro-1-methyl-3-(methylsulfonamido)-1H-indazol-7-yl)-7-(5-methoxypyridin-3-yl)-4-oxo-3,4-dihydropyrido[2,3-d]pyrimidin-2-yl)-2-(3,5-difluorophenyl)ethyl)-2-((3bS,4aR)-3-(difluoromethyl)-5,5-difluoro-3b,4,4a,5-tetrahydro-1H-cyclopropa[3,4]cyclopenta[1,2-c]pyrazol-1-yl)acetamide]
- EC50 (recombinant NL4-3 virus): 0.085 nM
- CC50 at 4 day [1]: > 100 nM

Compound: Cn1nc(NS(C)(=O)=O)c2c(Cl)ccc(-n3c([C@H](Cc4cc(F)cc(F)c4)NC(=O)Cn4nc(C(F)F)c5c4C(F)(F)[C@@H]4C[C@H]54)nc4nc(-c5cccc(C(F)F)n5)ccc4c3=O)c21 (atropisomer, axis not shown; (P)) [Example 38, N-((S)-1-((3P)-3-(4-chloro-1-methyl-3-(methylsulfonamido)-1H-indazol-7-yl)-7-(6-(difluoromethyl)pyridin-2-yl)-4-oxo-3,4-dihydropyrido[2,3-d]pyrimidin-2-yl)-2-(3,5-difluorophenyl)ethyl)-2-((3bS,4aR)-3-(difluoromethyl)-5,5-difluoro-3b,4,4a,5-tetrahydro-1H-cyclopropa[3,4]cyclopenta[1,2-c]pyrazol-1-yl)acetamide]
- EC50 (recombinant NL4-3 virus): 0.051 nM
- CC50 at 4 day [1]: > 100 nM

Compound: Cn1nc(NS(C)(=O)=O)c2c(Cl)ccc(-n3c([C@H](Cc4cc(F)cc(F)c4)NC(=O)Cn4nc(C(F)F)c5c4C(F)(F)[C@@H]4C[C@H]54)nc4nc(-c5cc(C(F)F)ccn5)ccc4c3=O)c21 (atropisomer, axis not shown; (P)) [Example 39, N-((S)-1-((3P)-3-(4-chloro-1-methyl-3-(methylsulfonamido)-1H-indazol-7-yl)-7-(4-(difluoromethyl)pyridin-2-yl)-4-oxo-3,4-dihydropyrido[2,3-d]pyrimidin-2-yl)-2-(3,5-difluorophenyl)ethyl)-2-((3bS,4aR)-3-(difluoromethyl)-5,5-difluoro-3b,4,4a,5-tetrahydro-1H-cyclopropa[3,4]cyclopenta[1,2-c]pyrazol-1-yl)acetamide]
- EC50 (recombinant NL4-3 virus): 0.046 nM
- CC50 at 4 day [1]: > 100 nM

Source: patent publication US20220389007A1, “INHIBITORS OF HUMAN IMMUNODEFICIENCY VIRUS REPLICATION” (VIIV HEALTHCARE UK (No. 5) LIMITED, priority 2019, published 2022)
